pIC50: −log10 of the molar value.
The compounds below were run against T1, p101/p110γ protein (PI3Kγ) (Homo sapiens, UniProt P48736) (assay: PI3Kγ In Vitro Kinase Assay). Settings: purified recombinant p101/p110γ with G protein β1/γ2 subunits; 20 μM ATP, 25 μM PIP2; 20 minutes at room temperature; radioactive PIP3 readout.
T1 construct: HA; made in house; host or cells: Spodoptera frugiperda (Sf9) cells, baculovirus coinfection
Type: biochemical
Experimental: Spodtera frugiperda cells, grown in ESF921 media, were coinfected with baculovirus expressing a glu-tagged […] and baculovirus expressing an HA-tagged p110γ, at a 3:1 ratio of p110 baculovirus to p110γ baculovirus. Sf9 cells were grown to 1×10^7 total cells/mL in 10L bioreactors and harvested 48-72 hours post infection. Samples of infected cells were then tested for expression of p101/p110γ PI3 kinase by immunoprecipitation and Western Blot analysis methods (see below).
To purify PI3Kγ, 4 volumes of room temperature hypotonic lysis buffer (1 mM MgCl2, 1 mM DTT, 5 mM EGTA, 1 mM Pefabloc, 0.5 μM aprotinin, […], 2 μM pepstatin, 5 μM E64, pH 8) per gram of cell paste, was poured onto frozen cell pellets with stirring, then lysed in a nitrogen “bomb” at 400 psi (599HC T316, Parr Instrument Co, Moline, Ill.). NaCl was added to 150 mM, and sodium cholate was added to 1% and mixed for another 45 minutes. The lysates were clarified by centrifugation for 25 minutes at 14,000 rpm. The lysates were then loaded over anti-glu-linked Protein-G Sepaharose beads (Covance Research Products, Richmond, Calif.) using 20 mL resin/50 g cell paste. The column was washed with 15 volumes of wash buffer (1 mM DTT, 0.2 mM EGTA, 1 mM Pefabloc, 0.5 μM aprotinin, 5 μM leupeptin, 2 μM pepstatin, 5 μM E64, 150 mM NaCl, 1% sodium cholate, pH 8). PI3Kγ was eluted with 6 column volumes of wash buffer that contain 100 μg/mL of a peptide that competes for binding of the glu tag. The column fractions with the eluted protein (determined by taking OD280 readings) were collected and dialyzed in 0.2 mM EGTA, 1 mM DTT, 1 mM Pefabloc, 5 μM leupeptin, 0.5% sodium cholate, 150 mM NaCl, and 50% glycerol, pH 8. The fractions were stored at −80° C. until further use.
Spodtera frugiperda cells were coinfected with baculovirus expressing a glu-tagged G protein β1 and baculovirus expressing a […] at a 1:1 ratio of glu-tagged G protein β1 baculovirus to G protein β2 baculovirus. Sf9 cells are grown in 10 L bioreactors and harvested 48-72 hours post infection. Samples of infected cells were tested for G protein β1/β2 expression by Western Blot analysis, as described below. Cell lysates were homogenized and loaded onto a column of glu-tagged beads as in Biological Example 1 and competed off the column with a glu peptide as described in Biological Example 1.
The inhibitory properties of the compounds in Table 1 were assayed in an in vitro PI3K assay. In a 96-well polypropylene plate, each well was spotted with 2 μL of 50 times the desired final concentration of compound in DMSO. Purified recombinant p101/p110γ protein (0.03 μg; ˜2.7 nM) and G protein β1/γ2 subunits (0.09 μg; −57.7 nM) for each reaction was combined in the assay buffer (30 mM HEPES, 100 mM NaCl, 1 mM EGTA, and 1 mM DTT). ATP and [γ-^32P-ATP] (0.09 μCi) were added to this mixture so that the final ATP concentration in the reaction was 20 μM. Lipid micelles were formed by sonicating phosphatidylinositol-4,5-diphosphate (PIP2), phosphatidylethanolamine (PE), and Na-cholate in the assay buffer for 10 minutes, adding MgCL2 and incubating on ice for 20 minutes, for final concentrations of 25 μM PIP2, 300 μM PE, 0.02% Na-cholate, and 10 mM MgCl2 in the reaction. The reactions were started by adding equal volumes lipid and enzyme mixture in a total volume of 50 μL, allowed to run for 20 minutes at room temperature, and stopped with 100 μL 75 mM H3PO4. The lipid product was transferred to a glass fiber filter plate and washed with 75 mM H3PO4 several times. The presence of radioactive lipid product (PIP3) was measured by adding Wallac Optiphase mix to each well and counting in a Wallac 1450 Trilux plate reader (PerkinElmer Life Sciences Inc., Boston, Mass. 02118). The IC50 for each compound tested is reported in μM in Table 1: […]

T1 sequence (P48736 whole entry, species assumed): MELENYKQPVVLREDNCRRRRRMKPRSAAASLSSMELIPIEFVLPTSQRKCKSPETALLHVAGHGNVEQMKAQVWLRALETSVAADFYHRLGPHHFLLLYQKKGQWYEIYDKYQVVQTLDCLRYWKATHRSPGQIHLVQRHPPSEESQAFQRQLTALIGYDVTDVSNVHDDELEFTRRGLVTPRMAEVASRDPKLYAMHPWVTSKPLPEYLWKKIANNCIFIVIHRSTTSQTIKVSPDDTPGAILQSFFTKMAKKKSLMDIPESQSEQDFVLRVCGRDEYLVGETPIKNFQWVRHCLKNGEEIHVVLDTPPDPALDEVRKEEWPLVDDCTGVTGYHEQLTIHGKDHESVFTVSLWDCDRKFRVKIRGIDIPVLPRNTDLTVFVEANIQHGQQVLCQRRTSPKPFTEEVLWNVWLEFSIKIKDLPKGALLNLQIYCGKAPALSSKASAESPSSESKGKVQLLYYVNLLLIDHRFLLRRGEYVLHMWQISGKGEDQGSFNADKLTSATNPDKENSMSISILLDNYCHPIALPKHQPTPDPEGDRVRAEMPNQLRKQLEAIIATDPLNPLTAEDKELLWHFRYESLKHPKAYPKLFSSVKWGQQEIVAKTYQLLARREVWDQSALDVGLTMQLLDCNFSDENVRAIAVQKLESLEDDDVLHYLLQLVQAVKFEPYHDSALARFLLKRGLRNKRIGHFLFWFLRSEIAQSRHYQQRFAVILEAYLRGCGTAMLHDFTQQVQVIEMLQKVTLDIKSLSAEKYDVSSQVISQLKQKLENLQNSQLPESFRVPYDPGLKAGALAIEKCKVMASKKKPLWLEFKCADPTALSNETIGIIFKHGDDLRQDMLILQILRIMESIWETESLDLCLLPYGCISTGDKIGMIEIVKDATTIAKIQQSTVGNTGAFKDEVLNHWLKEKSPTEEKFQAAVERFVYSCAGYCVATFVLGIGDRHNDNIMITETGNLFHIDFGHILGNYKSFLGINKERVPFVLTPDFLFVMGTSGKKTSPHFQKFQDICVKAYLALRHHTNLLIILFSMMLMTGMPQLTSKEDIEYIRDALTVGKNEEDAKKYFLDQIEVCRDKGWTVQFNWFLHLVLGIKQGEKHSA
T1 sequence (Q8WYR1 whole entry partner, species assumed): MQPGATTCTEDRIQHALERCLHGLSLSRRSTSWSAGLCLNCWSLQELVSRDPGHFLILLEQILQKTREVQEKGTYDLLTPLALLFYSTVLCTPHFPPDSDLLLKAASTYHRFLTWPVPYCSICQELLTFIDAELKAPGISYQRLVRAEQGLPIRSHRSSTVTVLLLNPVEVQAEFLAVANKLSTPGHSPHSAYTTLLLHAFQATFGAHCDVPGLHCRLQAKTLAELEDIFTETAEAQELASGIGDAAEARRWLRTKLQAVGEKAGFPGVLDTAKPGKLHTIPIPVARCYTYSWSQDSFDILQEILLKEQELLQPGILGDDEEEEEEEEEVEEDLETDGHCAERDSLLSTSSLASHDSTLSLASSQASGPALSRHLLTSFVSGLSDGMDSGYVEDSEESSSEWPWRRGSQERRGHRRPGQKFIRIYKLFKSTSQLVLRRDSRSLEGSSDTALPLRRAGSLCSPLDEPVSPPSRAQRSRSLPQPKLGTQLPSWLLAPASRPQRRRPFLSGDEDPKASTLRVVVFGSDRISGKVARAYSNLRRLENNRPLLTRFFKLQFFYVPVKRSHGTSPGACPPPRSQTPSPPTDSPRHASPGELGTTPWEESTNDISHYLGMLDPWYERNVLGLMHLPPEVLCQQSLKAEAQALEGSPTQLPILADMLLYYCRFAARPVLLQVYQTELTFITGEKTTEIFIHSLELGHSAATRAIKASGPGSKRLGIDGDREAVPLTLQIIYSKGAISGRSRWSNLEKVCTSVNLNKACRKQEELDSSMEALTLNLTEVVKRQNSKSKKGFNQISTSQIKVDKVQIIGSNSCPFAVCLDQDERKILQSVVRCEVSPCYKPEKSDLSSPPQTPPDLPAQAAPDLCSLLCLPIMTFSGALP

| Compound | pIC50 |
| --- | --- |
| O=C1NC(=S)SC1=Cc1ccc2c(c1)N(C(=O)COc1ccc(Cl)cc1)CCCO2 [Example 109, 5-{9-[2-(4-Chloro-phenoxy)-acetyl]-6,7,8,9-tetrahydro-5-oxa-9-aza-benzocyclohepten-2-ylmethylene}-2-thioxo-thiazolidin-4-one] | 5.69 |
| COC(=O)c1ccc(OC(=O)N2CCCOc3ccc(C=C4SC(=S)NC4=O)cc32)cc1 [Example 108, 2-(4-Oxo-2-thioxo-thiazolidin-5-ylidenemethyl)-7,8-dihydro-6H-5-oxa-9-aza-benzocycloheptene-9-carboxylic acid 4-methoxycarbonyl-phenyl ester] | 6.19 |
| O=C1NC(=S)SC1=Cc1ccc2c(c1)N(C(=O)Oc1ccccc1)CCO2 [Example 17, 6-(4-Oxo-2-thioxo-thiazolidin-5-ylidenemethyl)-2,3-dihydro-1,4-benzoxazine-4-carboxylic acid phenyl ester] | 8.52 |
| O=C1NC(=S)SC1=Cc1ccc2c(c1)NCCCO2 [Example 103, 5-(6,7,8,9-Tetrahydro-5-oxa-9-aza-benzocyclohepten-2-ylmethylene)-2-thioxo-thiazolidin-4-one] | 6.35 |
| Cc1cc(C)cc(CN2CCCOc3ccc(C=C4SC(=S)NC4=O)cc32)c1 [Example 7, 5-[9-(3,5-Dimethyl-benzyl)-6,7,8,9-tetrahydro-5-oxa-9-aza-benzocyclohepten-2-ylmethylene]-2-thioxo-thiazolidin-4-one] | 6.11 |
| O=C1NC(=S)SC1=Cc1ccc2c(c1)N(C(=O)c1ccccc1)CCO2 [Example 1, 5-[4-(1-Phenyl-methanoyl)-3,4-dihydro-2H-benzo[1,4]oxazine-6-ylmethylene]-2-thioxo-thiazolidin-4-one] | 7.25 |
| O=C1NC(=S)SC1=Cc1ccc2c(c1)N(C(=O)Cc1ccc(Cl)c(Cl)c1)CCO2 [Example 15] | 8.14 |
| O=C1NC(=S)SC1=Cc1ccc2c(c1)N(C(=O)CCc1ccccc1)CCO2 [Example 70, 5-[4-(3-Phenyl-propionyl)-3,4-dihydro-2H-1,4-benzoxazin-6-ylmethylene]-2-thioxo-thiazolidin-4-one] | 7.51 |
| COc1ccc(C)cc1C(=O)N1CCOc2ccc(C=C3SC(=S)NC3=O)cc21 [Example 88, 5-[4-(2-Methoxy-5-methyl-benzoyl)-3,4-dihydro-2H-benzo[1,4]oxazin-6-ethylene]-2-thioxo-thiazolidin-4-one] | 6.33 |
| COC(=O)c1ccc(OC(=O)N2CCOc3ccc(C=C4SC(=S)NC4=O)cc32)cc1 [Example 50, 6-(4-Oxo-2-thioxo-thiazolidin-5-ylidenemethyl)-2,3-dihydro-1,4-benzoxazine-4-carboxylic acid 4-methoxycarbonyl-phenyl ester] | 8.15 |
| CC(C)(C)c1cc(CN2CCOc3ccc(C=C4SC(=S)NC4=O)cc32)cc(C(C)(C)C)c1 [Example 5, 5[4-(3,5-Di-tert-butyl-benzyl)-3,4-dihydro-2H-benzo[1,4]oxazine-6-ylmethylene]-2-thioxo-thiazolidin-4-one] | 5.73 |
| COC(=O)CCC(=O)N1CCOc2ccc(C=C3SC(=S)NC3=O)cc21 [Example 101, 4-Oxo-4-[6-(4-oxo-2-thioxo-thiazolidin-5-ylidenemethyl)-2,3-dihydro-1,4-benzoxazin-4-yl]-butyric acid methyl ester] | 7.70 |
| CC(C)(C)C(=O)N1CCOc2ccc(C=C3SC(=S)NC3=O)cc21 [Example 97, 5-[4-(2,2-Dimethyl-propionyl)-3,4-dihydro-2H-1,4-benzoxazin-6-ylmethylene]-2-thioxo-thiazolidin-4-one] | 5.79 |
| O=C1NC(=S)SC1=Cc1ccc2c(c1)N(C(=O)c1ccc3c(c1)OCO3)CCO2 [Example 71, 5-[4-(1,3-Benzodioxole-5-carbonyl)-3,4-dihydro-2H-1,4-benzoxazin-6-ylmethylene]-2-thioxo-thiazolidin-4-one] | 6.03 |
| CCCC(=O)N1CCOc2ccc(C=C3SC(=S)NC3=O)cc21 [Example 94, 5-(4-Butyryl-3,4-dihydro-2H-1,4-benzoxazin-6-ylmethylene)-2-thioxo-thiazolidin-4-one] | 8.00 |
| O=C1NC(=S)SC1=Cc1ccc2c(c1)N(C(=O)Cc1ccc3ccccc3c1)CCO2 [Example 11, 5-[4-(2-Naphthalen-2-yl-acetyl)-3,4-dihydro-2H-benzo[1,4]oxazine-6-ylmethylene]-2-thioxo-thiazolidin-4-one] | 7.28 |
| Cc1cc(C(=O)N2CCOc3ccc(C=C4SC(=S)NC4=O)cc32)no1 [Example 52, 5-[4-(5-Methyl-isoxazole-3-carbonyl)-3,4-dihydro-2H-1,4-benzoxazin-6-ylmethylene]-2-thioxo-thiazolidin-4-one] | 6.94 |
| COc1ccc(NC(=O)N2CCOc3ccc(C=C4SC(=S)NC4=O)cc32)cc1OC [Example 75, 6-(4-Oxo-2-thioxo-thiazolidin-5-ylidenemethyl)-2,3-dihydro-benzo[14]oxazine-4-carboxylic acid (3,4-dimethoxy-phenyl)-aniide] | 7.85 |
| CCCCCCC(=O)N1CCOc2ccc(C=C3SC(=S)NC3=O)cc21 [Example 34, 5-(4-Heptanoyl-3,4-dihydro-2H-1,4-benzoxazin-6-ylmethylene)-2-thioxo-thiazolidin-4-one] | 8.40 |
| O=C1NC(=S)SC1=Cc1ccc2c(c1)N(C(=O)Oc1cccc3ccccc13)CCO2 [Example 69, 6-(4-Oxo-2-thioxo-thiazolidin-5-ylidenemethyl)-2,3-dihydro-1,4-benzoxazine-4-carboxylic acid naphthalen-1-yl ester] | 8.22 |
| CC(C)(C)c1ccc(C(=O)N2CCOc3ccc(C=C4SC(=S)NC4=O)cc32)cc1 [Example 25, 5-[4-(4-tert-Butyl-benzoyl)-3,4-dihydro-2H-1,4-benzoxazin-6-ylmethylene]-2-thioxo-thiazolidin-4-one] | 6.61 |
| O=C1NC(=S)SC1=Cc1ccc2c(c1)N(C(=O)Nc1cccc(C(F)(F)F)c1)CCO2 [Example 55, 6-(4-Oxo-2-thioxo-thiazolidin-5-ylidenemethyl)-2,3-dihydro-1,4-benzoxazine-4-carboxylic acid (3-trifluoromethyl-phenyl)-amide] | 8.30 |
| CCc1ccc(C(=O)N2CCOc3ccc(C=C4SC(=S)NC4=O)cc32)cc1 [Example 26, 5-[4-(4-Ethyl-benzoyl)-3,4-dihydro-2H-1,4-benzoxazin-6-ylmethylene]-2-thioxo-thiazolidin-4-one] | 6.26 |
| 5-(9-Cyclopropanecarbonyl-6,7,8,9-tetrahydro-5-oxa-9-aza-benzocyclohepten-2-ylmethylene)-2-thioxo-thiazolidin-4-one [Example 104] | 6.94 |
| O=C1NC(=S)SC1=Cc1ccc2c(c1)N(S(=O)(=O)c1ccccc1)CCO2 [Example 3, 5-[(4-benzenesulfonyl)-3,4-dihydro-2H-benzo[1,4]oxazine-6-ylmethylene)-2-thioxo-thiazolidin-4-one] | 5.95 |
| O=C1NC(=S)SC1=Cc1ccc2c(c1)N(C(=O)NC1CCCC1)CCO2 [Example 68, 6-(4-Oxo-2-thioxo-thiazolidin-5-ylidenemethyl)-2,3-dihydro-1,4-benzoxazine-4-carboxylic acid cyclopentylamide] | 8.10 |
| O=C1NC(=S)SC1=Cc1ccc2c(c1)N(C(=O)C1CCCCCC1)CCO2 [Example 83, 5-[4-Cycloheptanecarbonyl-3,4-dihydro-2H-benzo[1,4]oxazin-6-ethylene]-2-thioxo-thiazolidin-4-one] | 7.57 |

— patent US20040138199A1, “Benzoxazines and derivatives thereof as therapeutic agents” (priority 2002, published 2004)
